Assay results as given in patent publication US20050112573A1, “Method of detecting toxic substance” (priority 2001, published 2005).

Tested on: yeast genes (level of expressed mRNA)
Experiment: DNA chip analysis of expressed mRNA of yeast genes after 2 h culture with a toxic chemical substance
Assay type: cell-based, Saccharomyces cerevisiae S288C
Method in brief: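 S. cerevisiae S288C in YPD at 25 °C was exposed at log phase for 2 h to a growth-inhibiting, non-lethal concentration of the chemical. Poly(A) mRNA was reverse-transcribed with Cy3- or Cy5-dUTP and hybridized to a whole-genome yeast DNA chip (65 °C, >12 h). Values are fluorescence ratios versus untreated cells.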

γ-hexachlorocyclohexane [(7)] was tested, and the “The level of expressed mRNA in the presence of chemical substance/” value (yeast gene YAL053W, ratio to control without chemical) was 0.7, the “The level of expressed mRNA in the presence of chemical substance/The level of expressed mRNA in the absence of chemical substance” value (yeast gene YAR010C) was 1.9 and the “The level of expressed mRNA in the presence of chemical substance/The level of expressed mRNA in the absence of chemical substance” value (yeast gene YBL005W-A) was 1.4. The “The level of expressed mRNA in the presence of chemical substance/The level of expressed mRNA in the absence of chemical substance” value (yeast gene YBL041W) was 1.6, the “The level of expressed mRNA in the presence of chemical substance/The level of expressed mRNA in the absence of chemical substance” value (yeast gene YBL043W) was 1.5 and the “The level of expressed mRNA in the presence of chemical substance/” value (yeast gene YBL048W, ratio to control without chemical substance, 2 h culture) was 1.9. For the same substance, the “The level of expressed mRNA in the presence of chemical substance/The level of expressed mRNA in the absence of chemical substance” value (yeast gene YBL078C) was 3.1, the “The level of expressed mRNA in the presence of chemical substance/” value (yeast gene YBL107C, ratio to control without chemical substance, 2 h culture) was 2.1 and the “The level of expressed mRNA in the presence of chemical substance/in the absence of chemical substance” value (yeast gene YBR036C) was 1.3. The “The level of expressed mRNA in the presence of chemical substance/The level of expressed mRNA in the absence of chemical substance” value (yeast gene YBR214W) was 1.1, the “The level of expressed mRNA in the presence of chemical substance/in the absence of chemical substance” value (yeast gene YBR298C) was 1.7 and the “The level of expressed mRNA in the presence of chemical substance/The level of expressed mRNA in the absence of chemical substance” value (yeast gene YCL020W) was 1.5. The “The level of expressed mRNA in the presence of chemical substance/The level of expressed mRNA in the absence of chemical substance” value (yeast gene YCL027W) was 1.0, the “The level of expressed mRNA in the presence of chemical substance/The level of expressed mRNA in the absence of chemical substance” value (yeast gene YCR004C) was 1.4 and the “The level of expressed mRNA in the presence of chemical substance/The level of expressed mRNA in the absence of chemical substance” value (yeast gene YCR071C) was 1.4. The “The level of expressed mRNA in the presence of chemical substance/The level of expressed mRNA in the absence of chemical substance” value (yeast gene YCR088W) was 1.2, the “The level of expressed mRNA in the presence of chemical substance/The level of expressed mRNA in the absence of chemical substance” value (yeast gene YDL008W) was 2.0 and the “The level of expressed mRNA in the presence of chemical substance/” value (yeast gene YDL072C, ratio to control without chemical) was 1.8. The “The level of expressed mRNA in the presence of chemical substance/in the absence of chemical substance” value (yeast gene YDL078C) was 1.7, the “The level of expressed mRNA in the presence of chemical substance/” value (yeast gene YDL204W, ratio to control without chemical) was 3.2 and the “The level of expressed mRNA in the presence of chemical substance/in the absence of chemical substance” value (yeast gene YDL215C) was 1.9. The “The level of expressed mRNA in the presence of chemical substance/” value (yeast gene YDL222C, ratio to control without chemical) was 1.0, the “The level of expressed mRNA in the presence of chemical substance/The level of expressed mRNA in the absence of chemical substance” value (yeast gene YDL238C) was 1.4 and the “The level of expressed mRNA in the presence of chemical substance/The level of expressed mRNA in the absence of chemical substance” value (yeast gene YDR055W) was 1.5. For the same substance, the “The level of expressed mRNA in the presence of chemical substance/The level of expressed mRNA in the absence of chemical substance” value (yeast gene YDR084C) was 0.9, the “The level of expressed mRNA in the presence of chemical substance/The level of expressed mRNA in the absence of chemical substance” value (yeast gene YDR085C) was 4.1 and the “The level of expressed mRNA in the presence of chemical substance/The level of expressed mRNA in the absence of chemical substance” value (yeast gene YDR104C) was 1.0. For the same substance, the “The level of expressed mRNA in the presence of chemical substance/The level of expressed mRNA in the absence of chemical substance” value (yeast gene YDR115W) was 1.6, the “The level of expressed mRNA in the presence of chemical substance/The level of expressed mRNA in the absence of chemical substance” value (yeast gene YDR259C) was 2.8 and the “The level of expressed mRNA in the presence of chemical substance/in the absence of chemical substance” value (yeast gene YDR297W) was 0.6. The “The level of expressed mRNA in the presence of chemical substance/The level of expressed mRNA in the absence of chemical substance” value (yeast gene YDR315C) was 1.4, the “The level of expressed mRNA in the presence of chemical substance/” value (yeast gene YDR330W, ratio to control without chemical substance, 2 h culture) was 1.3 and the “The level of expressed mRNA in the presence of chemical substance/The level of expressed mRNA in the absence of chemical substance” value (yeast gene YDR358W) was 2.8. For the same substance, the “The level of expressed mRNA in the presence of chemical substance/in the absence of chemical substance” value (yeast gene YDR387C) was 1.3, the “The level of expressed mRNA in the presence of chemical substance/The level of expressed mRNA in the absence of chemical substance” value (yeast gene YDR388W) was 1.1 and the “The level of expressed mRNA in the presence of chemical substance/” value (yeast gene YDR411C, ratio to control without chemical substance, 2 h culture) was 2.0. For the same substance, the “The level of expressed mRNA in the presence of chemical substance/The level of expressed mRNA in the absence of chemical substance” value (yeast gene YDR432W) was 0.5, the “The level of expressed mRNA in the presence of chemical substance/The level of expressed mRNA in the absence of chemical substance” value (yeast gene YDR481C) was 0.7 and the “The level of expressed mRNA in the presence of chemical substance/The level of expressed mRNA in the absence of chemical substance” value (yeast gene YDR510W) was 1.6. The “The level of expressed mRNA in the presence of chemical substance/” value (yeast gene YDR511W, ratio to control without chemical substance, 2 h culture) was 1.5, the “The level of expressed mRNA in the presence of chemical substance/” value (yeast gene YDR545W, ratio to control without chemical substance, 2 h culture) was 1.2 and the “The level of expressed mRNA in the presence of chemical substance/” value (yeast gene YEL001C, ratio to control without chemical) was 1.1. For the same substance, the “The level of expressed mRNA in the presence of chemical substance/The level of expressed mRNA in the absence of chemical substance” value (yeast gene YEL042W) was 0.5, the “The level of expressed mRNA in the presence of chemical substance/The level of expressed mRNA in the absence of chemical substance” value (yeast gene YEL066W) was 1.8 and the “The level of expressed mRNA in the presence of chemical substance/” value (yeast gene YER004W, ratio to control without chemical substance, 2 h culture) was 1.4. For the same substance, the “The level of expressed mRNA in the presence of chemical substance/” value (yeast gene YER035W, ratio to control without chemical substance, 2 h culture) was 1.9, the “The level of expressed mRNA in the presence of chemical substance/The level of expressed mRNA in the absence of chemical substance” value (yeast gene YER039C) was 1.3 and the “The level of expressed mRNA in the presence of chemical substance/” value (yeast gene YER079W, ratio to control without chemical substance, 2 h culture) was 1.9. The “The level of expressed mRNA in the presence of chemical substance/” value (yeast gene YER106W, ratio to control without chemical) was 1.0, the “The level of expressed mRNA in the presence of chemical substance/The level of expressed mRNA in the absence of chemical substance” value (yeast gene YER107C) was 1.0 and the “The level of expressed mRNA in the presence of chemical substance/The level of expressed mRNA in the absence of chemical substance” value (yeast gene YER130C) was 1.5. For the same substance, the “The level of expressed mRNA in the presence of chemical substance/” value (yeast gene YER158C, ratio to control without chemical substance, 2 h culture) was 1.2, the “The level of expressed mRNA in the presence of chemical substance/” value (yeast gene YER163C, ratio to control without chemical substance, 2 h culture) was 1.5 and the “The level of expressed mRNA in the presence of chemical substance/” value (yeast gene YER175C, ratio to control without chemical substance, 2 h culture) was 2.3. The “The level of expressed mRNA in the presence of chemical substance/” value (yeast gene YFL006W, ratio to control without chemical substance, 2 h culture) was 1.0.
